Measurements from PubChem BioAssay (NCI).
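Five concentrations, 48 hours, 96-well plates. GI50: concentration for 50% inhibition of growth. TGI is the concentration that stops growth completely.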

Key:
Experiment in all cases: NCI anticancer screen, dose series, 48 h
BT-549 breast = system: BT-549 breast
T-47D breast = system: T-47D breast
NCI/ADR-RES ovarian = system: NCI/ADR-RES ovarian
HS 578T breast = system: HS 578T breast
PC-3 prostate = system: PC-3 prostate
MDA-MB-231 breast = system: MDA-MB-231 breast

Row | Structure (SMILES) | GI50 (BT-549 breast) [µM] | TGI (BT-549 breast) [µM] | GI50 (T-47D breast) [µM] | TGI (T-47D breast) [µM] | GI50 (NCI/ADR-RES ovarian) [µM] | TGI (NCI/ADR-RES ovarian) [µM] | GI50 (HS 578T breast) [µM] | TGI (HS 578T breast) [µM] | GI50 (PC-3 prostate) [µM] | TGI (PC-3 prostate) [µM] | GI50 (MDA-MB-231 breast) [µM] | TGI (MDA-MB-231 breast) [µM]
1 | CCN(CC)C(=O)CC1=C(C)/C(=C/c2[nH]c(-c3ccc[nH]3)cc2OC)N=C1C | 0.787 | 47.1 | 0.272 | 13.1 | 0.563 | 14.8 | 0.656 | 7.97 | 0.35 | 33 | 0.213 | 0.909
2 | CN1CCN(CCCOc2cccc3nc(Nc4ccc(Cl)c(F)c4)ccc23)CC1 | 2.4 | 7.73 | 1.78 | 4.02 | 1.8 | 3.77 | 2.12 | 5.77 | 1.76 | 3.41 | 1.68 | 3.39
3 | N=Nc1c(OC(=O)Nc2ccccc2)[nH]c2ccccc12 |  | 27.6 |  | 37.7 |  | > 100 |  | > 100 |  | 34.4 |  | 41.6
4 | CC(C)(C)[Si](C)(C)OCC1CCC(n2cnc3c(=O)[nH]cnc32)O1 (centres undefined) |  |  |  | > 100 |  | > 100 |  | > 100 |  | > 100 |  | > 100
5 | O=C(Cn1c(=O)c(-c2ccccc2)nc2ccccc21)c1ccc(Cl)cc1 |  |  | > 100 | > 100 | 48 | > 100 | 43.5 | > 100 | 34.6 | > 100 | 40.9 | > 100
6 | N#CC(C#N)=Cc1c(-c2ccccc2)[nH]c2ccccc12 | 8.45 | > 100 | 4.23 | > 95.1 | 0.82 | > 45.2 | 2.31 | 8.49 | 2.9 | > 70.8 | 1.42 | 30.3
7 | NC(=O)c1cc(-c2ccncc2)cc(-c2ccccc2)c1N | 22.5 | > 25 | 9.57 | > 25 | > 21 | > 25 | 6.35 | > 23.6 | > 22.3 | > 25 | 12.2 | > 25
8 | NC1=NC(c2ccc(Cl)cc2)N(c2ccc(S(=O)(=O)Nc3ncccn3)cc2)C(N)=N1 (centres undefined) |  | > 100 |  | > 100 |  | > 100 |  | > 100 |  | > 100 |  | > 100
9 | COc1cc([N+](=O)[O-])c(S(=O)(=O)O)cc1NS(=O)(=O)c1ccc(C)cc1 |  | > 100 |  | > 100 |  | > 100 |  | > 100 |  | > 100 |  | > 100
10 | CCNC(C)(C)C(SS)c1ccc(Br)cc1 (centres undefined) |  | > 100 |  | 93.6 |  | > 100 |  | > 100 |  | > 100 |  | > 100
11 | O=[N+]([O-])c1cc([N+](=O)[O-])c(Cl)c(Cl)c1Cl | 8.84 | 21 | 0.631 | 2.84 | 2.87 | > 100 | 2.26 | 5.31 |  |  | 1.71 | 3.24
12 | CC[C@@]1(OC(=O)CN)C(=O)OCc2c1cc1n(c2=O)Cc2cc3cc4c(cc3nc2-1)OCO4 | 0.0157 | 0.552 | < 0.01 | > 100 | < 0.01 | 0.015 | 0.399 | > 100 | 0.0275 | > 100 | 0.787 | > 23.7
